Laboratory results taken from patent US8329717B2, “Pyrimidine derivatives and their use for controlling undesired plant growth” (Bayer Cropscience AG, priority 2008, dated 2012).

Experiments:
[1] = test system: Echinochloa crus-galli; test: Post-emergence herbicidal effect; type: in vivo; settings: Dosage 320 g/ha, one-leaf stage, visual scoring after ca. 3 weeks vs untreated controls, 100% = plants have died
Description: (§1) The following abbreviations are used in the tables below: [table] 2. Post-Emergence Herbicidal Effect and Crop Plant Compatibility Seeds of monocotyledonous or dicotyledonous weed plants or crop plants are planted in wood-fiber pots in sandy loam, covered with earth and grown in a greenhouse under good growth conditions. 2 to 3 weeks after sowing, the test plants are treated in the one-leaf stage. The compounds according to the invention, formulated in the form of wettable powders (WP) or as emulsion concentrates (EC), are then sprayed onto the green plant parts as aqueous suspension or emulsion at a water application rate of 600 to 800 l/ha (converted) with the addition of 0.2% of wetting agent. The dosage of the compounds according to the invention is given in grams per hectare. After ca. 3 weeks' standing time of the test plants in the greenhouse under optimum growth conditions, the effect of the preparations is scored visually in comparison with untreated controls (herbicidal effect in percent (%): 100% effect=plants have died, 0% effect=as control plants).

[2] = test system: Amaranthus retroflexus; test: Post-emergence herbicidal effect; type: in vivo; settings: Dosage 320 g/ha, one-leaf stage, visual scoring after ca. 3 weeks vs untreated controls, 100% = plants have died
Description: as §1

[3] = test system: Polygonum convolvulus; test: Post-emergence herbicidal effect; type: in vivo; settings: Dosage 320 g/ha, one-leaf stage, visual scoring after ca. 3 weeks vs untreated controls, 100% = plants have died
Description: as §1

[4] = test system: Abutilon theophrasti; test: Post-emergence herbicidal effect; type: in vivo; settings: Dosage 320 g/ha, one-leaf stage, visual scoring after ca. 3 weeks vs untreated controls, 100% = plants have died
Description: as §1

[5] = test system: Setaria viridis; test: Post-emergence herbicidal effect; type: in vivo; settings: Dosage 320 g/ha, one-leaf stage, visual scoring after ca. 3 weeks vs untreated controls, 100% = plants have died
Description: as §1

[6] = test system: Viola tricolor; test: Post-emergence herbicidal effect; type: in vivo; settings: Dosage 320 g/ha, one-leaf stage, visual scoring after ca. 3 weeks vs untreated controls, 100% = plants have died
Description: as §1

[7] = test system: Lolium multiflorum; test: Post-emergence herbicidal effect; type: in vivo; settings: Dosage 320 g/ha, one-leaf stage, visual scoring after ca. 3 weeks vs untreated controls, 100% = plants have died
Description: as §1

[8] = test system: Veronica persica; test: Post-emergence herbicidal effect; type: in vivo; settings: Dosage 320 g/ha, one-leaf stage, visual scoring after ca. 3 weeks vs untreated controls, 100% = plants have died
Description: as §1

[9] = test system: Stellaria media; test: Post-emergence herbicidal effect; type: in vivo; settings: Dosage 320 g/ha, one-leaf stage, visual scoring after ca. 3 weeks vs untreated controls, 100% = plants have died
Description: as §1

[10] = test system: PHBPU; test: Post-emergence herbicidal effect; type: in vivo; settings: Dosage 320 g/ha, one-leaf stage, visual scoring after ca. 3 weeks vs untreated controls, 100% = plants have died
Description: as §1, with “2.” for “The following abbreviations are used in the tables below: [table] 2.”

[11] = logp (HCOOH), chemicophysical data
[12] = test system: Matricaria inodora; test: Post-emergence herbicidal effect; type: in vivo; settings: Dosage 320 g/ha, one-leaf stage, visual scoring after ca. 3 weeks vs untreated controls, 100% = plants have died
Description: as §1

[13] = test system: Echinochloa crus-galli; test: Pre-emergence herbicidal effect; type: in vivo; settings: Dosage 320 g/ha, visual scoring after 3 weeks vs untreated controls, 100% = plants have died
Source text: (§2) 1. Pre-Emergence Herbicidal Effect and Crop Plant Compatibility Seeds of monocotyledonous or dicotyledonous weed plants or crop plants are planted in wood-fiber pots in sandy loam and covered with earth. The compounds according to the invention, formulated in the form of wettable powders (WP) or as emulsion concentrates (EC), are then applied as aqueous suspension or emulsion at a water application rate of 600 to 800 l/ha (converted) with the addition of 0.2% of wetting agent to the surface of the covering earth. The dosage of the compounds according to the invention is given in grams per hectare. Following the treatment, the pots are placed in a greenhouse and kept under good growth conditions for the test plants. The visual scoring of the damage on the test plants is carried out after an experiment time of 3 weeks in comparison with untreated controls (herbicidal effect in percent (%): 100% effect=plants have died, 0% effect=as control plants). The following abbreviations are used in the tables below: [table]

[14] = test system: Matricaria inodora; test: Pre-emergence herbicidal effect; type: in vivo; settings: Dosage 320 g/ha, visual scoring after 3 weeks vs untreated controls, 100% = plants have died
Source text: as §2

[15] = test system: Amaranthus retroflexus; test: Pre-emergence herbicidal effect; type: in vivo; settings: Dosage 320 g/ha, visual scoring after 3 weeks vs untreated controls, 100% = plants have died
Source text: as §2

[16] = test system: Lolium multiflorum; test: Pre-emergence herbicidal effect; type: in vivo; settings: Dosage 320 g/ha, visual scoring after 3 weeks vs untreated controls, 100% = plants have died
Source text: as §2

[17] = test system: Veronica persica; test: Pre-emergence herbicidal effect; type: in vivo; settings: Dosage 320 g/ha, visual scoring after 3 weeks vs untreated controls, 100% = plants have died
Source text: as §2

[18] = test system: Stellaria media; test: Pre-emergence herbicidal effect; type: in vivo; settings: Dosage 320 g/ha, visual scoring after 3 weeks vs untreated controls, 100% = plants have died
Source text: as §2

[19] = test system: Avena fatua; test: Pre-emergence herbicidal effect; type: in vivo; settings: Dosage 320 g/ha, visual scoring after 3 weeks vs untreated controls, 100% = plants have died
Source text: as §2

[20] = test system: Polygonum convolvulus; test: Pre-emergence herbicidal effect; type: in vivo; settings: Dosage 320 g/ha, visual scoring after 3 weeks vs untreated controls, 100% = plants have died
Source text: as §2

[21] = test system: Setaria viridis; test: Pre-emergence herbicidal effect; type: in vivo; settings: Dosage 320 g/ha, visual scoring after 3 weeks vs untreated controls, 100% = plants have died
Source text: as §2

[22] = test system: Viola tricolor; test: Pre-emergence herbicidal effect; type: in vivo; settings: Dosage 320 g/ha, visual scoring after 3 weeks vs untreated controls, 100% = plants have died
Source text: as §2

[23] = test system: Alopecurus myosuroides; test: Pre-emergence herbicidal effect; type: in vivo; settings: Dosage 320 g/ha, visual scoring after 3 weeks vs untreated controls, 100% = plants have died
Source text: as §2

[24] = test system: Alopecurus myosuroides; test: Post-emergence herbicidal effect; type: in vivo; settings: Dosage 320 g/ha, one-leaf stage, visual scoring after ca. 3 weeks vs untreated controls, 100% = plants have died
Description: as §1

| SMILES | Post-emergence herbicidal effect ECHCG [1] [%] | Post-emergence herbicidal effect AMARE [2] [%] | Post-emergence herbicidal effect POLCO [3] [%] | Post-emergence herbicidal effect ABUTH [4] [%] | Post-emergence herbicidal effect SETVI [5] [%] | Post-emergence herbicidal effect VIOTR [6] [%] | Post-emergence herbicidal effect LOLMU [7] [%] | Post-emergence herbicidal effect VERPE [8] [%] | Post-emergence herbicidal effect STEME [9] [%] | Post-emergence herbicidal effect PHBPU [10] [%] | logp (HCOOH) [11] | Pre-emergence herbicidal effect ECHCG [13] [%] | Pre-emergence herbicidal effect MATIN [14] [%] | Pre-emergence herbicidal effect AMARE [15] [%] | Pre-emergence herbicidal effect LOLMU [16] [%] | Pre-emergence herbicidal effect VERPE [17] [%] | Pre-emergence herbicidal effect STEME [18] [%] | Pre-emergence herbicidal effect SETVI [21] [%] | Pre-emergence herbicidal effect VIOTR [22] [%] | Pre-emergence herbicidal effect ALOMY [23] [%] | also measured |
| --- | --- | --- | --- | --- | --- | --- | --- | --- | --- | --- | --- | --- | --- | --- | --- | --- | --- | --- | --- | --- | --- |
| Cc1nc(NC2c3ccccc3CC2C)nc(N)c1C#N (racemic) [Example 1.23] | 100 | 80 | 100 | 80 | 90 | 90 | 90 | 90 | 90 | 80 | solid; logp (HCOOH): 1.99; 1H-NMR (CDCl3, 400 MHZ, δ in ppm): 1.25 (d, 3H, CH3); |  |  |  |  |  |  |  |  |  |  |
| Cc1nc(NC2CCc3ccccc32)nc(N)c1C#N (racemic) [Example 1.24] | 90 |  |  |  |  |  | 100 | 90 | 100 |  |  |  |  |  |  |  |  |  |  |  | Post-emergence herbicidal effect MATIN [12]: 80% |
| Cc1nc(NC2CCc3ccc(C(C)C)cc32)nc(N)c1C#N (racemic) [Example 1.28] | 90 | 90 | 90 | 90 |  | 90 |  | 90 |  |  | wax-like; logp (HCOOH): 2.68; 1H-NMR (CDCl3, 400 MHZ, δ in ppm): 1.20 (d, 6H, CH3); |  |  |  |  |  |  |  |  |  |  |
| Nc1nc(N[C@@H]2CCCc3ccccc32)ncc1I [Example 1.37] | 80 | 100 |  | 85 |  | 80 |  | 90 | 95 | 80 | wax-like; logp (HCOOH): 1.32; 1H-NMR (CDCl3, 400 MHZ, δ in ppm): 1.85 (m, 2H, CH2); | 100 | 90 | 100 | 100 | 100 | 100 |  |  |  |  |
| Cc1ccc2c(c1)[C@H](Nc1nc(C)c(I)c(N)n1)[C@@H](C)C2 [Example 1.46] |  | 100 |  | 100 | 90 | 90 |  | 90 | 90 |  | wax-like; logp (HCOOH): 1.39; 1H-NMR (CDCl3, 400 MHZ, δ in ppm): 1.25 (d, 3H, CH3); |  | 100 | 100 | 100 | 100 | 100 | 100 | 100 | 80 | Pre-emergence herbicidal effect AVEFA [19]: 80%; Pre-emergence herbicidal effect POLCO [20]: 100% |
| CCc1nc(N[C@@H]2CCc3ccccc32)nc(N)c1C#N [Example 1.62, 4-Amino-2-[(1R)-2,3-dihydro-1H-inden-1-ylamino]-6-ethylpyrimidine-5-carbonitrile] | 90 |  | 80 |  |  |  | 90 | 80 | 80 | 80 |  | 100 | 90 |  | 80 | 100 | 100 | 90 | 100 | 80 | Post-emergence herbicidal effect ALOMY [24]: 80%; chromatographic logP ([11]; HCOOH (formic acid)): 2.18 |
| Cc1ccc2c(c1)[C@H](Nc1nc(N)cc(Cl)n1)[C@@H](C)C2 [Example 1.75] | 85 | 90 | 80 |  |  |  |  | 85 | 87 | 90 |  | 100 | 100 | 100 | 95 | 100 | 100 | 95 | 100 | 100 | Pre-emergence herbicidal effect AVEFA [19]: 90%; Pre-emergence herbicidal effect POLCO [20]: 100% |
| CC[C@H]1Cc2ccc(C)cc2[C@@H]1Nc1nc(C)c(C#N)c(N)n1 [Example 1.96] | 85 | 85 | 85 | 85 | 85 | 85 | 90 | 85 | 95 | 90 |  | 100 | 100 | 100 | 100 | 100 | 100 | 100 | 100 | 100 | Post-emergence herbicidal effect ALOMY [24]: 80%; Pre-emergence herbicidal effect AVEFA [19]: 80%; Pre-emergence herbicidal effect POLCO [20]: 100% |
| Nc1nc(N[C@@H]2CCCc3ccccc32)ncc1Cl [Example 1.106] | 90 | 80 |  |  | 80 |  | 90 | 80 | 80 |  |  | 90 | 90 | 100 | 100 | 100 | 100 | 100 |  | 100 | Post-emergence herbicidal effect ALOMY [24]: 80% |
| CC[C@H]1Cc2ccccc2[C@@H]1Nc1nc(C)c([N+](=O)[O-])c(N)n1 [Example 1.126] | 80 |  |  |  |  |  |  | 85 | 90 | 80 |  | 95 | 100 | 100 |  | 100 | 100 | 85 | 100 |  | Pre-emergence herbicidal effect POLCO [20]: 90% |
